# According to patent publication US9969771B2, “Tetrapeptide having effect of inhibiting VEGF-induced angiogenesis and use thereof” (AVIXGEN INC., priority 2015, dated 2018):
# “Also recorded” adds a separate entry of the source. Where a SMILES comes first, the peptide text is derived from it.
# Key:
# HUVECs = assay: HUVEC migration, transwell (Boyden chamber) assay; format: cell-based, human
# Experimental: HUVEC migration was analyzed using a transwell plate equipped with a 6.5-mm-diameter polycarbonate filter (8-μm pore size). A lower surface of the filter was coated with 10 μg of gelatin. […] Following incubation with various concentrations of tetrapeptides at room temperature for 30 minutes, HUVECs (1×10^6 cells/100 μl) were placed in upper wells. The cells were incubated at 37° C. in a constant temperature and humidity chamber for 4 hours. The migrated cells were stained with hematoxylin and eosin, and quantified under an optical microscope.
# p38 = assay: Western blot, p38 activation in VEGF-A-stimulated HUVECs; format: cell-based, human; settings: HUVECs stimulated with VEGF-A
# Experimental: Cells were lyzed in RIPA buffer, and 50 μg of proteins were isolated by SDS-PAGE and then transferred to a PVDF membrane. The membrane was reacted with an antibody with respect to a target protein for 2 hours. The membrane was washed twice and reacted with a horseradish peroxidase-conjugated antibody, and then an amount of the target proteins was assessed with an enhanced chemiluminescence system.
smiles,measurement,setting,value
CC(C)C[C@H](NC(=O)[C@@H](N)CCCNC(=N)N)C(=O)N[C@@H](Cc1ccc(O)cc1)C(=O)N[C@@H](CCC(=O)O)C(=O)O [RLYE] (H-RLYE-OH; N-terminus and C-terminus assumed),EGF-induced migration of HUVECs,HUVECs; EGF stimulated,does not affect
same,P1GF-induced HUVEC migration,HUVECs; P1GF (ligand of VEGFR-1),does not inhibit
same,inhibition of VEGF-induced HUVEC migration,HUVECs; VEGF / VEGF-A stimulated,effectively inhibited; also recorded: certainly inhibits; also recorded: concentration-dependently inhibited
same,VEGF-B-induced HUVEC migration,HUVECs; VEGF-B (ligand of VEGFR-1),does not inhibit
same,bFGF-induced migration of HUVECs,HUVECs; bFGF stimulated,did not inhibit
same,activation of p38,p38,inhibited
